The source of these data is patent EP0239528A1, “13-Beta-carbamoyloxy-milbemicyne derivatives for fighting harmful animal and plant parasites” (CIBA-GEIGY AG, priority 1986, dated 1987).

Type in all cases: in vivo
One test deals with Spodoptera littoralis. Put plainly: B-1 insecticidal stomach-poison action on sprayed cotton plants. Conditions: 12,5 ppm active ingredient, after 24 hours, L1 larvae on cotton plants. The protocol:
B-1. Insektizide Frassgift-Wirkung bei Spodoptera littoralis
Eingetopfe Baumwollpflanzen im 5-Blatt-Stadium werden mit einer acetonisch/wässrigen Versuchslösung besprüht, die 3, 12,5 oder 50 ppm der zu prüfenden Verbindung enthält.
Nach dem Antrocknen des Belags werden die Pflanzen mit ca. 30 Larven (L₁-Stadium) von Spodoptera littoralis besetzt. Pro Versuchsverbindung und pro Test-Spezies verwendet man zwei Pflanzen. Der Versuch wird bei ca. 24°C und 60 % relativer Luftfeuchtigkeit durchgeführt Auswertungen und Zwischenauswertungen auf moribunde Tiere, Wachstum und Larven und Frasschäden erfolgen nach 24 Stunden, 48 Stunden und 72 Stunden.

Test [1] concerns OP-sensible Tetranychus urticae. Put plainly: B-2 action against plant-damaging acarids on bean plants. Particulars: 1,6 ppm active ingredient, evaluation after seven days. An excerpt:
B-2. Wirkung gegen pflanzenschädigende Akariden OP-sensible Tetranychus urticae
Die Primärblätter von Bohnenpflanzen (Phaseolus vulgaris) werden 16 Stunden vor dem Versuch mit einem durch T. urticae infestierten, aus einer Massenzucht stammenden Blattstück belegt. Die so mit allen Milben-Stadien infestierten Pflanzen werden nach Entfernung des Blattstücks mit einer Versuchslösung bis zur Tropfnässe besprüht, die wahlweise 0,4 ppm oder 1,6 ppm der zu prüfenden Verbindung enthält. Die Temperatur in der Gewächshauskabine beträgt ca. 25°C.
Nach sieben Tagen wird unter dem Binokular auf Prozentsatz mobiler Stadien (Adulte und Nymphen) und auf vorhandene Eier ausgewertet.

In test [2] the test system is L₁-Larven von Lucilia sericata. In words: B-3 action against L1 larvae in larval culture medium. Conditions: 96 h, reduced concentration of 100 ppm, after 4 days, read-out: Wirkung (Mortalitätsrate). The protocol:
B-3. Wirkung gegen L₁-Larven von Lucilia sericata
1 ml einer wässrigen Suspension der zu prüfenden Aktivsubstanz werden so mit 3 ml eines speziellen Larvenzuchtmediums bei ca. 50°C vermischt, dass ein Homogenisat von wahlweise 250 ppm oder […] Wirkstoffgehalt entsteht. In jede Reagenzglas-Probe werden ca. 30 Lucilia-Larven (L₁) eingesetzt. Nach 4 Tagen wird die Mortalitätsrate bestimmt. Die Verbindungen aus den Herstellungsbeispielen zeigen bei 250 ppm eine Wirkung von 100 %, wobei die Verbindungen aus den Herstellungsbeispiele, wie z.B. E8, E6, E2, E14, E22, E28, E26, E30, E32, E34, E36 und E38, diese Wirkung auch noch bei der reduzierten Wirkstoffkonzentration von 100 ppm erzielten.

In the next test the test system is Aphis craccivora. Put plainly: B-6 contact action on infested pea seedlings. Conditions: Aphis craccivora, 72 h; 25 ppm, after 3 days; read-out: Abtötung. An excerpt: B-6. Kontaktwirkung auf Aphis craccivora
Erbsenkeimlinge, die mit sämtlichen Entwicklungsstadien der Laus infiziert sind, werden mit einer aus einem Emulsionskonzentrat hergestellten Wirkstofflösung besprüht, die wahlweise 50 ppm, 25 ppm oder 12,5 ppm Wirkstoff enthält. Nach 3 Tagen wird auf mehr als 80 % tote bzw. abgefallene Blattläuse ausgewertet. Nur bei dieser Wirkungshöhe wird ein Präparat als wirksam eingestuft.

For another test, the system named is Aedes aegypti. Put plainly: B-7 larvicidal action in water. Conditions: 3,3 ppm, after one day. On the procedure:
B-7. Larvizidwirkung gegen Aedes aegypti
Auf die Oberfläche von 150 ml Wasser, das sich in einem Behälter befindet, wird soviel einer 0,1 %igen acetonischen Lösung des Wirkstoffes pipettiert, dass Konzentrationen von wahlweise 10 ppm, 3,3 ppm und 1,6 ppm erhalten werden. Nach Verdunsten des Acetons wird der Behälter mit ca. 30-40 3 Tage alten Aedes-Larven beschickt. Nach 1, 2 und 5 Tagen wird die Mortalität geprüft.

As to `CCC1OC2(CCC1C)CC1CC(CC=C(C)C(OC(=O)Nc3ccccc3C(F)(F)F)C(C)C=CC=C3COC4C(O)C(C)=CC(C(=O)O1)C34O)O2` (stereo not drawn) [Beispiel E22, 13β-N-(2-Trifluorphenyl)-carbamoyloxy-milbemycin A₄], the Abtötung result (with Spodoptera littoralis; in test [1]) was “vollständige Abtötung” each time. The mortality at 100 ppm in test [2] was 100%. The mortality at 25 ppm in the test on Aphis craccivora worked out at 100%. Further, the “Abtötung sämtlicher Larven” value in the test with Aedes aegypti is recorded as “vollständige Abtötung”.
